Assay results taken from patent US10857105B2, “Compounds and compositions for intracellular delivery of therapeutic agents” (ModernaTX, Inc., priority 2017, dated 2020).
Entries after “also recorded” stand apart in the source; their conditions may differ.

Experiments:
[1] = Protein expression with nanoparticle composition containing Compound 18 versus MC3 counterpart, 0.1 and 0.3 mpk; format: in vivo; conditions: dose response between 0.1 and 0.3 mpk
cynomolgus monkeys = assay: Repeat dose hEPO expression in cynomolgus monkeys, once weekly for 5 weeks; format: in vivo, cynomolgus monkey; conditions: 0.2 mg/kg hEPO mRNA, 60-minute intravenous infusion, n=4
Description: NHP studies: Nonhuman primate studies were conducted using naïve cynomolgus monkeys (cynos), 2-4 years old, weighing 2-6 kg. No treatment randomization or blinding methods were used for any of the animal studies. Sample sizes were determined by the resource equation method. For injection, mRNA-LNPs in phosphate buffered saline (PBS) were administered by 60-minute intravenous infusion using a temporary indwelling catheter inserted in a peripheral vein.
hEPO ELISA for NHP samples: Human Epo levels were measured using a human erythropoietin immunoassay. Cytokines levels were measured using a non-human primate cytokine kit.
The level of expression provided by LNPs of the disclosure in a repeat dose experiment in primates was evaluated. A 0.2 mg/kg dose of hEPO mRNA in a compound 18-based LNP was delivered via a 60-minute intravenous infusion to cynomolgus monkeys (n=4) once weekly for 5 weeks.

[2] = Complement activation indicators in non-human primates; format: in vivo
Description: The tolerability and efficacy of nanoparticle compositions to non-human primates was also investigated using a sample formulation including Compound 18. The formulation was prepared according to the standard MC3 formulation described above and included an hEPO mRNA. Primates were administered a single dose of 0.05 (Group 1), 0.3 (Group 2), or 1.0 (Group 3) mpk via intravenous infusion for 60 minutes. Three primates were administered each dose. Expression of hEPO was measured prior to dosing and at 2, 6, 24, 48, and 96 hours post-treatment (Table 26). Table 28 includes levels of indicators of complement activation, while Table 29 includes cytokine induction data.

[3] = One month toxicology evaluation in cynomolgus monkeys (serum ALT, AST, C5b9, MCP-1); format: in vivo; conditions: 1 mg/kg mRNA
Description: FIGS. 32A-32C are a series of graphs summarizing the results of a one month toxicology evaluation in rat and non-human primate. PBS (phosphate buffered saline) was used as a control. […] The serum levels were measured 24 post fifth dose (n=4). […] The serum levels were measured 24 post fifth dose (n=4).
FIGS. 33A and 33B are a pair of graphs summarizing the results of a one month toxicology evaluation in rats and non-human primates.
FIG. 38 is a graph showing mRNA levels in NHP after repeat dosing over the course of 29 days.

female CD-1 mice = assay: Luciferase expression after subcutaneous administration of lipid/mRNA formulations (whole body BLI); format: in vivo; conditions: 0.5 mpk
Description: The effect of the lipids of the disclosure on protein expression upon subcutaneous administration was studied. Formulations containing lipids of the disclosure and an mRNA expressing luciferase or hEPO were administered subcutaneously to female CD-1 mice at 0.5 mpk. Expression levels were obtained via whole body luminescent imaging (BLI) at 3, 6 and 24 hours after injection and expression levels in liver, spleen and at the injection site were evaluated ex vivo after 24 hours. […] See also Tables 35 and 36, and FIGS. 19 and 27.
Table 35 summarizes the luciferase expression levels using various nanoparticle compositions of the disclosure, and the luciferase expression levels using various nanoparticle compositions 6f the disclosure as compared to the luciferase expression level using an MC3 formulation after subcutaneous administration, as described above.

[4] = Lipid clearance: mouse liver tissue level and % dose remaining in liver after intravenous administration; format: in vivo
sC5b-9 = assay: Complement activation: sC5b-9 levels in human cells contacted in vitro with nanoparticle compositions; format: cell-based
Description: Complement activation assists in the clearance of pathogens from an organism. As it is undesirable that a subject's body recognize a nanoparticle composition as a foreign invader, low complement system activation upon administration of such a composition is preferred. The complex sC5b-9 is a marker for the activation of the complement system. Thus, human cells were contacted in vitro with nanoparticle compositions according to Table 1A and were evaluated for sC5b-9 levels.

IP-10 = assay: Cytokine induction (IP-10) in rats after intravenous administration; format: in vivo, rat; conditions: for IP-10 induction: rat, 48 hours
Description: The expression of hEPO and cytokine induction in rats intravenously administered a nanoparticle composition at a dose of 2.0 mpk was measured at 6 h.
Table 19A summarizes the hEPO expression, IP-10 induction, liver and spleen levels, and alanine aminotransferase (ALT) and aspartate aminotransferase (AST) measured upon intravenous administration of formulations including Compounds 48, 49, and 50 to rat at 0.2 and 2 mpk and hEPO mRNA. hEPO concentrations were measured 6 hours after administration, while cytokine induction and liver and spleen levels were measured 48 hours after administration. hEPO and IP-10 concentrations are presented in pg/ml, while liver levels are provided in ng/g. ALT and AST levels are presented in international units.

[5] = pH, osmolality and zeta potential of nanoparticle compositions; format: physicochemical; conditions: nanoparticle composition with hEPO mRNA (Table 30)
[6] = 60 min infusion, dosed weekly, after fifth dose (n=4)

## CCCCCCCCCOC(=O)CCCCCCCN(CCO)CCCCCCCC(=O)OC(CCCCCCCC)CCCCCCCC [Compound 18, Heptadecan-9-yl 8-((2-hydroxyethyl)(8-(nonyloxy)-8-oxooctyl)amino)octanoate]
[1]
  0.3 mpk AUC relative to 0.1 mpk dose AUC: about three times
Cynomolgus monkeys
  hEPO exposure over repeat dosing: Efficient expression; also recorded: Consistent exposure
[2]; Group 1 (0.05 mpk), 2 h
  Bb fragment: 5341 ng/mL
  C5b9: 1959 ng/mL
[2]; Group 1 (0.05 mpk), 6 h
  Bb fragment: 3037 ng/mL
  C3a: 12385 ng/mL
  C5b9: 786 ng/mL
[2]; Group 1 (0.05 mpk), 24 h
  Bb fragment: 1496 ng/mL
  C3a: 11596 ng/mL
[2]; Group 1 (0.05 mpk), Day 5
  Bb fragment: 1273 ng/mL
  C3a: 11945 ng/mL
[2]; Group 1 (0.05 mpk), Predose
  Bb fragment: 1375 ng/mL
  C5b9: 169 ng/mL
[2]; Group 2 (0.3 mpk), 2 h
  Bb fragment: 5356 ng/mL
  C5b9: 393 ng/mL
[2]; Group 2 (0.3 mpk), 6 h
  Bb fragment: 7157 ng/mL
  C3a: 32436 ng/mL
  C5b9: 1333 ng/mL
[2]; Group 2 (0.3 mpk), 24 h
  Bb fragment: 3680 ng/mL
  C3a: 19721 ng/mL
[2]; Group 2 (0.3 mpk), Day 5
  Bb fragment: 2400 ng/mL
  C3a: 16207 ng/mL
[2]; Group 2 (0.3 mpk), Predose
  Bb fragment: 1461 ng/mL
  C5b9: 157 ng/mL
[2]; Group 3 (1.0 mpk), 2 h
  Bb fragment: 8849 ng/mL
  C5b9: 801 ng/mL
[2]; Group 3 (1.0 mpk), 6 h
  Bb fragment: 12820 ng/mL
  C3a: 51996 ng/mL
  C5b9: 2928 ng/mL
[2]; Group 3 (1.0 mpk), 24 h
  Bb fragment: 8601 ng/mL
  C3a: 35843 ng/mL
[2]; Group 3 (1.0 mpk), Day 5
  Bb fragment: 2834 ng/mL
  C3a: 19101 ng/mL
[2]; Group 3 (1.0 mpk), Predose
  Bb fragment: 1529 ng/mL
  C5b9: 238 ng/mL
[3]; [6]
  Serum alanine aminotransferase levels: No statistical difference between PBS pre-dose and day 30 levels
  Serum aspartate aminotransferase levels: No statistical difference between PBS pre-dose and day 30 levels
[3]; day 1 and day 29 (n=4)
  MCP-1 serum concentration: no statistical difference between PBS and Compound 18 at any other timepoint

## CCCCCC=CCC=CCCCCCCCCC(CCCCCCCCC=CCC=CCCCCC)OC(=O)CCCN(C)C (centres unmarked) [MC3, heptatriaconta-6,9,28,31-tetraen-19-yl 4-(dimethylamino)butanoate, reference compound]
Female CD-1 mice
  Lipid/MC3 AUC ratio (luciferase): 1
Female CD-1 mice; BLI at 3, 6 and 24 hours
  Luciferase expression AUC: 1.7127E+10 (p/s)*h
[4]; first column headed 6 h (Table 3D)
  % Dose Remaining in Liver 6 h: 80%
[4]; mouse liver, 6 h
  % Remaining dose at 6 h: >98%
[4]; mouse liver, 24 h
  % Remaining dose at 24 h: 79.7%
[4]; mouse, liver, 0.5 mg/kg, 6 h
  concentration at 6 h: 85400 ng/g
[4]; mouse, liver, 0.5 mg/kg, 24 h
  concentration at 24 h: 67400 ng/g
[4]; second column headed 6 h (Table 3D)
  % Dose Remaining in Liver 6 h: 54%
sC5b-9
  Fold increase in sC5b-9 levels versus saline: 0.73
IP-10; intravenous 0.2 mpk
  IP-10 induction: 2 pg/mL
IP-10; intravenous 2 mpk
  IP-10 induction: 596 pg/mL
IP-10; rats, intravenous 2.0 mpk, hEPO nanoparticle compositions, 6 hours
  IP-10: 688.3 pg/mL
[5]
  Osmolality: 318 mOsm/kg
  Zeta potential: −3.64 mV
  pH: 7.52
